Earlier results in US7456023B2, “Reagent for luminescence optical determination of an analyte” (Roche Diagnostics Operations, Inc., priority 2000, dated 2008).

Columns and labels:
[1] = for Absorption wavelength, deprotonated: deprotonated form; for Absorption wavelength, protonated: protonated form

Row | Molecule | Absorption wavelength, deprotonated [1] | Absorption wavelength, protonated [1] | pKa
1 | O=S1(=O)OC(c2cc(Br)c(O)c(Br)c2)(c2cc(Br)c(O)c(Br)c2)c2ccccc21 [Bromophenol blue] | 617 nm | 430 nm | –
2 | Cc1c(C2(c3cc(C(C)C)c(O)c(Br)c3C)OS(=O)(=O)c3ccccc32)cc(C(C)C)c(O)c1Br [Bromothymol blue] | 615-618 nm | 430-435 nm | –
3 | Cc1ccc(O)c(N=Nc2c(O)cc(S(=O)(=O)O)c3ccccc23)c1 [Calmagit] | 605 nm | 530 nm | –
4 | O=C1OC(c2ccc(O)c3ccccc23)(c2ccc(O)c3ccccc23)c2ccccc21 [Naphthol-phthalein] | 661 nm | 428 nm | –
5 | O=C1C=CC(=Nc2ccc(O)cc2)C=C1Cl [o-chlorophenol-indophenol] | 625 nm | 555 nm | –
6 | Dibromoxylenol blue | 614 nm | 420 nm | –
7 | Nitrazine yellow | 590 nm | 460 nm | 6.5
